Assay results from patent publication US8039505B2, “Compounds for modulating T-cells” (University of Utah Research Foundation, priority 2007, dated 2011).
Values joined by “and” are separate entries in the source; they are usually repeats but may differ in a detail not shown here. Equal values may be shown once.

Experiment: Pharmacokinetics in male Swiss Albino mouse, intravenous and oral (LC-MS/MS of plasma)
Assay type: in vivo
Conditions: for Individual plasma concentration: individual mice; for Mean plasma concentration: N = 3
Protocol: The pharmacokinetics of 1H-indole-3-carbaldehyde quinolin-8-ylhydrazone (Compound C3) was evaluated following intravenous (3 mg/kg) and oral (15 mg/kg) solution administration of 1H-indole-3-carbaldehyde quinolin-8-ylhydrazone in male Swiss Albino mouse. The effect of the Test Item, 1H-indole-3-carbaldehyde quinolin-8-ylhydrazone on complete blood count (CBC) was also evaluated. Pharmacokinetic phase consisted of two groups, Group 1 and Group 2. Animals in Group 1 were given intravenous bolus dose in a vehicle containing 5% N,N-dimethylacetamide, 5% CREMOPHOR™ EL and 90% Dextrose solution (5% w/v) and those in Group 2 were given oral solution dose in a vehicle, the composition of which was same as that of intravenous formulation. In addition, the effect of Test Item on complete blood count was evaluated following intravenous and oral dose administration along with its vehicle controls. A total of four groups were used each with 6 mice.
From the pharmacokinetic group, predose samples were collected from 3 animals in each group. Following dose administration terminal blood samples were collected at each of the following time points (in triplicate): 0.083 (only for intravenous), 0.25, 0.5, 1, 2, 4, 8, 12 and 24 hours. At each time point, approximately 500 μL of whole blood was withdrawn from the retro orbital sinus and collected in labeled tubes containing dipotassium EDTA as anticoagulant (20 μL of 200 mM K2 EDTA solution per mL of blood). Plasma was separated by centrifuging the whole blood at about 2500 g for 10 minutes at 4° C. within 1 h of sample collection. Separated plasma was stored below minus 50° C. until bioanalysis. A sensitive LC-MS/MS method was used for the quantitation of 1H-indole-3-carbaldehyde quinolin-8-ylhydrazone. The lower limit of quantitation was 1.04 ng/mL. For CBC evaluation, approximately 500 μL of blood was collected in labeled tubes containing dipotassium EDTA as anticoagulant (10 […]/mL of blood) after 48 h of dose administration from all animals.
A total of 57 mice were divided into an intravenous dose group of 30 mice (Group 1) and oral dose group of 27 mice (Group 2). Animals in Group 1 received intravenous bolus dose via tail vein at 3 mg/kg and animals in Group 2 received oral solution dose via gavage at 15 mg/kg. Three animals were administered the dose for each time point (intravenous: 10 time points; Oral: 9 time points). Terminal blood samples were collected from each mouse under light ether anesthesia and plasma was separated.
Animals in Group 1 were administered an intravenous bolus dose via the tail vein (dosing volume: 6 mL/kg). Animals in Group 2 received oral dose by gavage with an oral dosing needle (dosing volume: 10 mL/kg). Animals in the CBC evaluation group were treated same as above except the animals in control group received vehicle instead of formulation.
Pharmacokinetic group: Predose samples were collected from 3 animals in each group. Following dose administration terminal blood samples were collected at each of the following time points (in triplicate): 0.083 (only for intravenous), 0.25, 0.5, 1, 2, 4, 8, 12 and 24 hours. For each time point, approximately 500 μL of whole blood was withdrawn from the retro orbital sinus and collected in labeled tubes containing dipotassium EDTA as anticoagulant (20 μL of 200 mM K2 EDTA solution per mL of blood). Plasma was separated by centrifuging the whole blood at about 2500 g for 10 minutes at 4° C. within 1 h of sample collection. Separated plasma was stored below minus 50° C. until bioanalysis.
An LC-MS/MS method was developed and employed for the quantitation of 1H-indole-3-carbaldehyde quinolin-8-ylhydrazone in the mouse plasma samples. The samples were prepared for analysis following liquid-liquid extraction using amodiaquin as internal standard. The lower limit of quantitation was 1.04 ng/mL.
Pharmacokinetic parameters were calculated using non-compartmental analysis tool of WINNONLIN™ Enterprise software (Version 5.1.1). […]

[1] = mouse plasma, IV 3 mg/kg, 0.25 h samples, listed as ICQH, 3 mg/kg
[2] = mouse, intravenous bolus 3 mg/kg, 24 h, BLQ = below LLOQ 1.04 ng/mL
[3] = mouse, oral solution 15 mg/kg, 24 h, BLQ = below LLOQ 1.04 ng/mL

C(=NNc1cccc2cccnc12)c1c[nH]c2ccccc12 [Compound C3, 1H-indole-3-carbaldehyde quinolin-8-ylhydrazone]
Accepted conc. (repeat analysis) [1]: 199.60 c ng/mL and 225.35 c ng/mL
Initial conc. (repeat analysis) [1]: 132.16 ng/mL
Repeated conc. (repeat analysis) [1]: 225.35 ng/mL
Clearance as share of liver blood flow (mouse, IV 3 mg/kg): about 60 % of liver blood flow
Volume of distribution (mouse, IV 3 mg/kg): 4.28 Ukg
Volume of distribution relative to total body water (mouse, IV 3 mg/kg): about 6 times of total body water
Time till which plasma concentrations were quantifiable (mouse, following both intravenous (3 mg/kg) and oral (15 mg/kg) administration): 12 h
Individual plasma concentration (mouse, intravenous bolus 3 mg/kg, 0.083 h, LLOQ 1.04 ng/mL, 3 mg/kg): 2253.61 ng/mL and 1125.73 ng/mL and 75.62 b ng/mL
Individual plasma concentration (mouse, intravenous bolus 3 mg/kg, 0.083 h, LLOQ 1.04 ng/mL, listed as ICQH, 3 mg/kg): 2253.61 ng/mL and 1125.73 ng/mL and 75.62 ng/mL
Individual plasma concentration (mouse, intravenous bolus 3 mg/kg, 0.25 h, LLOQ 1.04 ng/mL, 3 mg/kg): 307.05 ng/mL and 225.35 ng/mL
Individual plasma concentration (mouse, intravenous bolus 3 mg/kg, 0.25 h, LLOQ 1.04 ng/mL, listed as ICQH, 3 mg/kg): 199.60 ng/mL and 307.05 ng/mL and 225.35 ng/mL
Individual plasma concentration (mouse, intravenous bolus 3 mg/kg, 0.5 h, LLOQ 1.04 ng/mL, 3 mg/kg): 388.25 ng/mL and 148.82 ng/mL and 339.56 ng/mL
Individual plasma concentration (mouse, intravenous bolus 3 mg/kg, 0.5 h, LLOQ 1.04 ng/mL, listed as ICQH, 3 mg/kg): 388.25 ng/mL and 148.82 ng/mL and 339.56 ng/mL
Individual plasma concentration (mouse, intravenous bolus 3 mg/kg, 1 h, LLOQ 1.04 ng/mL, 3 mg/kg): 184.80 ng/mL and 140.18 ng/mL
Individual plasma concentration (mouse, intravenous bolus 3 mg/kg, 1 h, LLOQ 1.04 ng/mL, listed as ICQH, 3 mg/kg): 184.80 ng/mL and 116.46 ng/mL and 140.18 ng/mL
Individual plasma concentration (mouse, intravenous bolus 3 mg/kg, 2 h, LLOQ 1.04 ng/mL, 3 mg/kg): 76.60 ng/mL and 47.02 ng/mL
Individual plasma concentration (mouse, intravenous bolus 3 mg/kg, 2 h, LLOQ 1.04 ng/mL, listed as ICQH, 3 mg/kg): 71.88 ng/mL and 76.60 ng/mL and 47.02 ng/mL
Individual plasma concentration (mouse, intravenous bolus 3 mg/kg, 4 h, LLOQ 1.04 ng/mL, 3 mg/kg): 27.25 ng/mL and 38.13 ng/mL
Individual plasma concentration (mouse, intravenous bolus 3 mg/kg, 4 h, LLOQ 1.04 ng/mL, listed as ICQH, 3 mg/kg): 42.37 ng/mL and 27.25 ng/mL and 38.13 ng/mL
Individual plasma concentration (mouse, intravenous bolus 3 mg/kg, 8 h, LLOQ 1.04 ng/mL, 3 mg/kg): 5.65 ng/mL and 11.10 ng/mL
Individual plasma concentration (mouse, intravenous bolus 3 mg/kg, 8 h, LLOQ 1.04 ng/mL, listed as ICQH, 3 mg/kg): 10.11 ng/mL and 5.65 ng/mL and 11.10 ng/mL
Individual plasma concentration (mouse, intravenous bolus 3 mg/kg, 12 h, BLQ = below LLOQ 1.04 ng/mL, 3 mg/kg): 2.20 ng/mL and BLQ
Individual plasma concentration (mouse, intravenous bolus 3 mg/kg, 12 h, BLQ = below LLOQ 1.04 ng/mL, listed as ICQH, 3 mg/kg): 1.68 ng/mL and 2.20 ng/mL and BLQ
Mean plasma concentration [2]: BLQ
Individual plasma concentration [2]: BLQ
Time of maximum concentration post-dose (mouse, oral solution 15 mg/kg): 1.0 h
Individual plasma concentration (mouse, oral solution 15 mg/kg, 0.25 h, LLOQ 1.04 ng/mL): 53.05 ng/mL and 113.38 ng/mL and 254.20 ng/mL
Individual plasma concentration (mouse, oral solution 15 mg/kg, 0.25 h, LLOQ 1.04 ng/mL, listed as ICQH): 53.05 ng/mL and 113.38 ng/mL and 254.20 ng/mL
Individual plasma concentration (mouse, oral solution 15 mg/kg, 0.5 h, LLOQ 1.04 ng/mL): 96.22 ng/mL and 72.56 ng/mL and 273.76 ng/mL
Individual plasma concentration (mouse, oral solution 15 mg/kg, 0.5 h, LLOQ 1.04 ng/mL, listed as ICQH): 96.22 ng/mL and 72.56 ng/mL and 273.76 ng/mL
Individual plasma concentration (mouse, oral solution 15 mg/kg, 1 h, LLOQ 1.04 ng/mL): 143.63 ng/mL and 32.21 ng/mL and 422.48 ng/mL
Individual plasma concentration (mouse, oral solution 15 mg/kg, 1 h, LLOQ 1.04 ng/mL, listed as ICQH): 143.63 ng/mL and 32.21 ng/mL and 422.48 ng/mL
Individual plasma concentration (mouse, oral solution 15 mg/kg, 2 h, LLOQ 1.04 ng/mL): 51.85 ng/mL and 95.13 ng/mL and 142.67 ng/mL
Individual plasma concentration (mouse, oral solution 15 mg/kg, 2 h, LLOQ 1.04 ng/mL, listed as ICQH): 51.85 ng/mL and 95.13 ng/mL and 142.67 ng/mL
Individual plasma concentration (mouse, oral solution 15 mg/kg, 4 h, LLOQ 1.04 ng/mL): 185.50 ng/mL and 87.82 ng/mL and 164.88 ng/mL
Individual plasma concentration (mouse, oral solution 15 mg/kg, 4 h, LLOQ 1.04 ng/mL, listed as ICQH): 185.50 ng/mL and 87.82 ng/mL and 164.88 ng/mL
Individual plasma concentration (mouse, oral solution 15 mg/kg, 8 h, LLOQ 1.04 ng/mL): 71.29 ng/mL and 78.06 ng/mL
Individual plasma concentration (mouse, oral solution 15 mg/kg, 8 h, LLOQ 1.04 ng/mL, listed as ICQH): 76.65 ng/mL and 71.29 ng/mL and 78.06 ng/mL
Individual plasma concentration (mouse, oral solution 15 mg/kg, 12 h, LLOQ 1.04 ng/mL): 4.05 ng/mL and 11.47 ng/mL and 11.21 ng/mL
Individual plasma concentration (mouse, oral solution 15 mg/kg, 12 h, LLOQ 1.04 ng/mL, listed as ICQH): 4.05 ng/mL and 11.47 ng/mL and 11.21 ng/mL
Mean plasma concentration [3]: BLQ
Individual plasma concentration [3]: BLQ
